In patent publication US5081121A, “4(1H)-quinolone derivatives” (priority 1988, dated 1992):

Key:
right atrial muscle = test: Test Method 1: enhancing rate of the pulsation of the right atrial muscle extirpated from a guinea pig; format: cell-based; conditions: minus values: pulsation is decreased
Description: (§1) The drug according to the present invention was evaluated with reference to the physiological activities by means of a method using an atrial muscle extirpated from a guinea pig.
(§2) Male guinea pigs having a body weight of 300-500 g were made swooned by striking his head and were bleeded to death. The heart was extirpated and the right and left atrial muscles were cut off. The tops of each atrial muscle were fixed with cerrefines. The muscle was suspended into an organ-bath in which a Krebs-Henseleit solution (at 32° C.) was filled, and a 95% O2 -5% CO2 gas was flown through the bath. The left atrial muscle was stimulated electrically at a frequency of 1 Hz to stabilize the contracting force of the left atrial muscle. Then, the compounds according to the present invention represented by the general formulae were added to the organ-bath. As for the right atrial muscle, after the pulsation was stabilized, the compounds according to the present invention were added in the organ-bath in the same manner as described above.
(§3) The compounds according to the present invention represented by the aforementioned general formulae enhanced the left atrial muscle contracting force dependent on their concentrations. The drug concentrations for enhancing the left atrial muscle contracting force to the levels of 20%, 50% and 100%, respectively are listed in Table 2. EC20, EC50 and EC100 indicate the molar concentration for enhancing the left atrial muscle contracting force to the levels of 20%, 50% and 100%, respectively. The enhancing rates of the pulsation of the right atrial muscle are also listed within parentheses. The minus values in parentheses indicate that the pulsation of the right atrial muscle is decreased.
(§4) As a control drug, theophylline ([…].

left atrial muscle = test: Test Method 1: enhancement of contracting force of left atrial muscle extirpated from a guinea pig (electrically stimulated at 1 Hz); format: cell-based; conditions: Cavia porcellus, Krebs-Henseleit solution 32° C.; for EC20: read-out: EC20 (molar concentration for enhancing the left atrial muscle contracting force to the level of 20%); for EC50: read-out: EC50 (molar concentration for enhancing the left atrial muscle contracting force to the level of 50%); for EC100: read-out: EC100 (molar concentration for enhancing the left atrial muscle contracting force to the level of 100%)
Description: as §1, §2, §3, §4

SMILES | enhancing rate of the pulsation of the right atrial muscle (in parentheses under EC50) (right atrial muscle) [%] | EC50 (left atrial muscle) [µM] | enhancing rate of the pulsation of the right atrial muscle (in parentheses under EC20) (right atrial muscle) [%] | EC20 (left atrial muscle) [µM] | enhancing rate of the pulsation of the right atrial muscle (in parentheses under EC100) (right atrial muscle) [%] | EC100 (left atrial muscle) [µM]
CCCCOc1cc2c(cc1OC)c(=O)cc(-c1ccco1)n2CC [Compound 118, 7-n-butoxy-1-ethyl-2-(2-furyl)-6-methoxy-4(1H)-quinolone] | -21.2 | 49 | -5.0 | 10 |  | 
COc1ccc(-c2ccccc2)c2c(=O)c(C(=O)O)c[nH]c12 [Compound 91, 3-carboxyl-8-methoxy-5-phenyl-4(1H)-quinolone] | 16.0 | 119 | 2.3 | 13.3 |  | 750
CCn1ccc(=O)c2cc(/C=C/c3cc(OC)ccc3OC)ccc21 [Compound 111, 6-[2-trans-(2,5-dimethoxyphenyl)vinyl]-1-ethyl-4(1H)-quinolone] | -27.0 | 97.7 | -9.8 | 18.2 |  | 
CCOC(=O)c1c[nH]c2c(C)cc(N(CC)CC)cc2c1=O [Compound 84, 6-diethylamino-3-ethoxycarbonyl-8-methyl-4(1H)-quinolone] | -6.5 | 57.5 | -3.0 | 35.9 | -11.5 | 126
CCOc1cc2c(=O)c(C(=O)O)cn(CC)c2cc1OC [Compound 86, 3-carboxyl-6-ethoxy-1-ethyl-7-methoxy-4(1H)-quinolone] | 8.5 | 125 | 1.5 | 30 |  | 
CCOC(=O)c1cn(CC)c2c(OCC)cc(OC)cc2c1=O [Compound 78, 8-ethoxy-3-ethoxycarbonyl-1-ethyl-6-methoxy-4(1H)-quinolone] | -25.0 | 75 | -6.2 | 8.41 |  | 
CCOC(=O)c1cn(CC)c2c(OC)cc([S+](C)[O-])cc2c1=O (centres unmarked) [Compound 39, 3-ethoxycarbonyl-1-ethyl-8-methoxy-6-methylsulfinyl-4(1H)-quinolone] | -12.1 | 67.6 | -7.7 | 13.5 |  | 
C=CCn1c(-c2cccs2)cc(=O)c2cc(OC)c(OCC)cc21 [Compound 116, 1-allyl-7-ethoxy-6-methoxy-2-(2-thienyl)-4(1H)-quinolone] |  | 60.3 | -10.0 | 15.3 |  | 
CCOC(=O)c1cn(CC)c2ccc(C)cc2c1=O [Compound 33, 3-ethoxycarbonyl-1-ethyl-6-methyl-4(1H)-quinolone] | 1.7 | 76.7 | 1.5 | 30 | -7.1 | 513
CCOC(=O)c1c[nH]c2c(OC)cccc2c1=O [Compound 35, 3-ethoxycarbonyl-8-methoxy-4(1H)-quinolone] | -2.0 | 80 | -1.2 | 26 | -3.7 | 260
CCN(CC)c1cc(C)c2[nH]ccc(=O)c2c1 [Compound 9, 6-diethylamino-8-methyl-4(1H)-quinolone] | 15.3 | 87.1 | 8.2 | 40.7 | 18.0 | 299
COc1ccc2[nH]ccc(=O)c2c1OCc1ccccc1 [Compound 4, 5-benzyloxy-6-methoxy-4(1H)-quinolone] |  |  | 0.7 | 1000 |  | 
CCCCOc1cc2[nH]ccc(=O)c2cc1OC [Compound 52, 7-n-butoxy-6-methoxy-4(1H)-quinolone] | -1.2 | 115 | -1.0 | 37.6 | -20.0 | 422

More lines, in order of falling EC50 (left atrial muscle), values ahead:

enhancing rate of the pulsation of the right atrial muscle (in parentheses under EC50) (right atrial muscle) [%] | EC50 (left atrial muscle) [µM] | SMILES | enhancing rate of the pulsation of the right atrial muscle (in parentheses under EC20) (right atrial muscle) [%] | EC20 (left atrial muscle) [µM] | enhancing rate of the pulsation of the right atrial muscle (in parentheses under EC100) (right atrial muscle) [%] | EC100 (left atrial muscle) [µM]
-4.0 | 53.1 | CCOc1cc2c(cc1OC)c(=O)cc(-c1cccnc1)n2CC [Compound 114, 7-ethoxy-1-ethyl-6-methoxy-2-(3-pyridyl)-4(1H)-quinolone] | -1.8 | 6.46 | -1.3 | 1000
-0.5 | 51.9 | COc1ccc(Cn2c(C3CC3)cc(=O)c3cc(OC)c(OC)cc32)cc1 [Compound 104, 2-cyclopropyl-6,7-dimethoxy-1-(4-methoxybenzyl)-4(1H)-quinolone] | -3.5 | 11.5 |  | 
-3.0 | 50.7 | CCn1c(-c2cccs2)cc(=O)c2ccccc21 [Compound 97, 1-ethyl-2-(2-thienyl)-4(1H)-quinolone] | -1.0 | 4.52 |  | 
13.5 | 47.3 | CCOc1cc2c(cc1OC)c(=O)ccn2CC [Compound 58, 7-ethoxy-1-ethyl-6-methoxy-4(1H)-quinolone] | 3.0 | 8.13 |  | 
-5.2 | 40.3 | CCOc1cc2c(cc1OC)c(=O)cc(-c1cccs1)n2CC [Compound 102, 7-ethoxy-1-ethyl-6-methoxy-2-(2-thienyl)-4(1H)-quinolone] | -0.2 | 2.51 |  | 
9.2 | 39.3 | O=C(c1ccccc1)c1cc(Cl)cc2c(=O)cc[nH]c12 [Compound 18, 8-benzoyl-6-chloro-4(1H)-quinolone] | 0.2 | 10 | 12.2 | 115
6.0 | 37.6 | CCOc1cc2c(cc1OC)c(=O)c(C(=O)O)cn2C [Compound 92, 3-carboxyl-7-ethoxy-6-methoxy-1-methyl-4(1H)-quinolone] | 1.0 | 4.73 |  | 
-16.0 | 36.3 | CCOC(=O)c1cn(CC)c2c(OC)cc(S(C)(=O)=O)cc2c1=O [Compound 40, 3-ethoxycarbonyl-1-ethyl-8-methoxy-6-methylsulfonyl-4(1H)-quinolone] | -4.5 | 4.57 |  | 
-4.0 | 30 | COc1ccc(Cn2ccc(=O)c3cc(OC)c(OC)cc32)cc1 [Compound 17, 6,7-dimethoxy-1-(4-methoxybenzyl)-4(1H)-quinolone] | -2.1 | 4.47 |  | 
3.6 | 25.7 | CCOC(=O)c1c[nH]c2c(OC)ccc(C)c2c1=O [Compound 36, 3-ethoxycarbonyl-8-methoxy-5-methyl-4(1H)-quinolone] | 0.0 | 3.54 | 8.9 | 77.6
-2.8 | 19.5 | CCOc1cc2c(cc1OC)c(=O)cc(-c1ccco1)n2CC [Compound 101, 7-ethoxy-1-ethyl-2-(2-furyl)-6-methoxy-4(1H)-quinolone] | -1.0 | 1.68 | 0.0 | 89.1
3.5 | 18.8 | O=c1cc(-c2cccs2)[nH]c2ccccc12 [Compound 100, 2-(2-thienyl)-4(1H)-quinolone] | 1.8 | 5.43 |  | 
